According to patent publication US10874675B2, “Pteridine dione monocarboxylate transporter inhibitors” (The Scripps Research Institute, priority 2015, dated 2020):

Key:
[1] = system: Raji (Burkitt's) lymphoma cells; assay: MTT assay for 4-day viability of Raji (Burkitt's) lymphoma cells; format: cell-based; conditions: Homo sapiens, 96 h, Raji cells (highly express MCT1), estimated values, read-out: approximate potency (EC50 nM)
Source text: Specific Examples of compounds of the invention, with estimated EC50 values determined using an MTT assay for 4-day viability of Raji (Burkitt's) lymphoma cells, a cell line known to highly express MCT1 and to be sensitive to small molecule MCT inhibitors,^4 are shown in Table 3. Assay protocols follow those described in the literature.^4 Other assays that are not described here but that are standard in the field, such as an assay for competitive inhibition of transport of radiolabeled lactic acid, an MCT substrate, may also be useful in establishing mechanism of action of these compounds.

[2] = system: Raji Burkitt lymphoma cells; assay: Xenograft of tumors derived from Raji Burkitt lymphoma cells in nude mice; format: in vivo; conditions: versus vehicle
Experimental: (§1) The in vivo effects of a few selected agents have been evaluated in mouse xenograft models and found to be effective. Protocols follow those described in the literature.^4
(§2) Mice were transplanted with cultured tumor cells and after an incubation period (typically 8-12 days), mice were left untreated or were treated daily with a 30 mg/kg dose of the test compound. Tumor volumes were measured with calipers over […] of treatment. Tumors were excised and weighed at the end of treatment. In some experiments the mice were co-treated daily with a 30 mg/kg dose of the test compound and 5 mg/kg of metformin.
In a separate experiment, this same compound was used in a study using implanted tumors derived from Raji Burkitt lymphoma cells, implanted into nude mice and treated as before with vehicle, with SR-11431, or with SR-11431 plus metformin.

T47D tumor cells = assay: Mouse xenograft experiment using T47D tumor cells; format: in vivo, mice; conditions: 30 mg/kg daily
Experimental: as §1, §2

EC50 [1]: < 50 nM
Structure (SMILES): CC(C)Cn1c(=O)n(C)c(=O)c2nc(CCCCCO)c(COc3cccc4cnccc34)nc21 [Example 3, 6-(5-hydroxypentyl)-1-isobutyl-7-((isoquinolin-5-yloxy)methyl)-3-methylpteridine-2,4(1H,3H)-dione]
tumor volume over time ([2]; 30 mg/kg daily (co-treatment: plus 5 mg/kg metformin), 30-day time course): Reduction of tumor volume over time
final tumor weight ([2]; end of treatment (day 32)): not significantly changed
tumor volume (T47D tumor cells; versus vehicle): significant reduction of tumor volume
final tumor mass (T47D tumor cells; versus vehicle treated animals, end of treatment): reduction in final tumor mass
